Experimental data taken from article PMC3624797 (Journal of Medicinal Chemistry, 2013).
Blank lines part the entries; values can stand above or below the compound they belong to.

Tests used:
[1] = in vivo; details: male, Sprague Dawley, rat, plasma
[2] = Oral exposure in mice; format: in vivo, mouse; details: single oral dose 50 mg/kg, suspension in PEG400, after ∼5 h
[3] = Blood and plasma stability; format: in vitro ADME; details: rat blood and plasma, over 4 h at 37 °C
[4] = Tolerability observed in rat PK studies; format: in vivo; details: rats; for hemolysis: dosed iv, most likely arising from the vehicle; for signs of toxicity: orally or ip at doses up to ∼20 mg/kg
[5] = Metabolic stability in human liver microsomes; format: in vitro ADME
[6] = Chemical stability; format: physicochemical
[7] = rat dosed intravenously
[8] = Metabolic stability in mouse liver microsomes; format: in vitro ADME; details: for metabolic stability (in words): incubated with mouse liver microsomes
[9] = Metabolic stability in rat liver microsomes; format: in vitro ADME

SMILES: CCOC(=O)C1=C(C)N/C(=C/c2cc(C)n(-c3ccccc3C(F)(F)F)c2C)C1=O [Compound 8a, Ethyl (5E)-5-[[2,5-dimethyl-1-[2-(trifluoromethyl)phenyl]pyrrol-3-yl]methylene]-2-methyl-4-oxo-1H-pyrrole-3-carboxylate]
half-life [1]: ≥ 8 h | plasma levels [2]: < 10 nM | hydrolyzed to the acid 10c [3]: ~25% | hemolysis [4]: slight degree of hemolysis | signs of toxicity [4]: No sign of toxicity | metabolites detected [5]: none | chemical stability (in words) [6]: fairly resistant to chemical hydrolysis | glutathione conjugation adducts in urine [7]: no adducts resulting from conjugation with glutathione were detected

metabolic stability (in words) [8]: slightly more stable
SMILES: CCOC(=O)C1=C(C)N/C(=C/c2cc(C)n(-c3ccc(CN(C)C)cc3)c2C)C1=O [Compound 8aa]

SMILES: CCOC(=O)C1=C(C)N/C(=C/c2cc(C)n(-c3ccc(C(F)(F)F)cc3)c2C)C1=O [Compound 8b, Ethyl (5E)-5-[[2,5-Dimethyl-1-[4-(trifluoromethyl)phenyl]pyrrol-3-yl]methylene]-2-methyl-4-oxo-1H-pyrrole-3-carboxylate]
metabolites detected ([8]; mouse liver microsomes (Table 6)): none | half-life [1]: ≥ 8 h | metabolites detected [9]: none | hemolysis [4]: slight degree of hemolysis | signs of toxicity [4]: No sign of toxicity | half-life at 1 μM [5]: 0.583 h | metabolites detected [5]: none

metabolic stability (in words) [8]: slightly more stable
SMILES: CCOC(=O)C1=C(C)N/C(=C/c2cc(C)n(-c3ccc(N4CCOCC4)cc3)c2C)C1=O [Compound 8u]

metabolic stability (in words) [8]: even lower metabolic stability
SMILES: CCOC(=O)C1=C(C)N/C(=C/c2ccn(-c3ccccc3C(F)(F)F)c2)C1=O [Compound 9a]

metabolic stability (in words) [8]: even lower metabolic stability
SMILES: CCOC(=O)C1=C(C)N/C(=C/c2ccn(-c3ccc(C(F)(F)F)cc3)c2)C1=O [Compound 9b]

metabolic stability (in words) [8]: even lower metabolic stability
SMILES: CCOC(=O)C1=C(C)N/C(=C/c2cc(CC)n(-c3ccccc3C(F)(F)F)c2CC)C1=O [Compound 9c, Ethyl (5E)-5-[[2,5-Diethyl-1-[2-(trifluoromethyl)phenyl]pyrrol-3-yl]methylene]-2-methyl-4-oxo-1H-pyrrole-3-carboxylate]

metabolic stability (in words) [8]: slightly more stable
SMILES: CC1=CC(=O)/C(=C\c2cc(C)n(-c3ccccc3C(F)(F)F)c2C)N1 [Compound 10d]

chemical stability (in words) [6]: less stable chemically
SMILES: CCOC(=O)C1=C(C)NC(Cc2cc(C)n(-c3ccccc3C(F)(F)F)c2C)C1=O (stereo not shown) [Compound 11b]
